Converted amounts (≈) assume the structure as drawn. Non-standard residues stand in square brackets, D forms with d. Residues, ends and D or L forms follow the SMILES beside them. *: point of attachment. Palmitoyl = CCCCCCCCCCCCCCCC(=O)*
Legend:
[1] = tested on: Candida albicans “S” (ATCC 10231); format: cell-based; conditions: ATCC 10231, 24 h, pH 5.6
Protocol: (§1) Strains of Candida albicans, Candida tropicalis and Candida glabrata, frequently found in cases of oral candidosis, were tested for L-bCtl and D-bCtl antimicrobial activity. The sensitive strain of C. albicans (ATCC 10231^TM) was provided by ATCC (Manassas, VA, USA). The resistant strain of C. albicans, the sensitive and resistant strains of C. tropicalis as well as the sensitive and resistant strains of C. glabrata were kindly provided by Dr Valérie Letscher-Bru (Laboratory of Parasitolology and Medical Mycology, Strasbourg, France).
(§2) Each Candida strain was first plated on agar plates and cultured for 24 h at 37 °C. After incubation, one colony per isolate was transferred into 5 mL of Sabouraud medium pH 5.6 (Sigma-Aldrich, Le Pont-de-Claix, France) supplemented with tetracycline (10 μg/mL) and cefotaxime (10 μg/mL) and incubated aerobically under agitation at 37 °C for 24 h. The resulting cultures were resuspended at an absorbance of 0.001 (OD600nm = 0.001) in Sabouraud medium. The OD600nm was evaluated with a spectrophotometer (BIO-RAD Smatspec^TM plus, Schiltigheim, France). In preliminary experiments, we tested RPMI-1640 culture and Sabouraud media. Similar data were obtained but the experiments were more reproducible with Sabouraud than with RPMI1640. Therefore, Sabouraud medium was used in the present study.
(§3) The yeasts (OD600nm = 0.001) were then plated on 96-well microplates and treated with different concentrations of the peptides of interest. After 24 h incubation at 37 °C under agitation, yeast growth was assessed by optical density (OD600nm) using a microplate spectrophotometer (Multiscan EX, Thermo Fisher Scientific, Waltham, MA, USA). All tests were performed in triplicate. The MIC (minimal inhibitory concentration), defined as the lowest concentration of drug able to inhibit 100% of the growth of a pathogen, was determined for the different peptides against all previously described Candida strains, using a modified Gompertz model.

Candida albicans “R” = format: cell-based; conditions: 24 h, pH 5.6
Protocol: as §1, §2, §3

Compound	MIC C. albicans “S” [1] [µg/mL]	MIC C. albicans “R” (Candida albicans “R”) [µg/mL]
CCCCCCCCCCCCCCCC(=O)N[C@@H](CO)C(=O)N[C@@H](CO)C(=O)N[C@@H](CCSC)C(=O)N[C@@H](CCCCN)C(=O)N[C@@H](CC(C)C)C(=O)N[C@@H](CO)C(=O)N[C@@H](Cc1ccccc1)C(=O)N[C@@H](CCCNC(=N)N)C(=O)N[C@@H](C)C(=O)N[C@@H](CCCNC(=N)N)C(=O)NCC(=O)N[C@@H](Cc1ccc(O)cc1)C(=O)NCC(=O)N[C@@H](Cc1ccccc1)C(=O)N[C@@H](CCCNC(=N)N)C(=O)O [Peptide P13] (Palmitoyl-SSMKLSFRARGYGFR-OH; C-terminus assumed)	>100	>100
CSCC[C@H](NC(=O)[C@H](CO)NC(=O)[C@@H](N)CO)C(=O)N[C@@H](CCCCN)C(=O)N[C@@H](CC(C)C)C(=O)N[C@@H](CO)C(=O)N[C@@H](Cc1ccccc1)C(=O)N[C@@H](CCCNC(=N)N)C(=O)N[C@@H](C)C(=O)N[C@@H](CCCNC(=N)N)C(=O)N[C@@H](C)C(=O)N[C@@H](Cc1ccc(O)cc1)C(=O)NCC(=O)N[C@@H](Cc1ccccc1)C(=O)N[C@@H](CCCNC(=N)N)C(=O)O [hCtl] (H-SSMKLSFRARAYGFR-OH)	50 (≈ 28.1 µM)	50 (≈ 28.1 µM)
CCCCCCCCCCCCCCCC(=O)N[C@@H](CCSC)C(=O)N[C@@H](CCCCN)C(=O)N[C@@H](CC(C)C)C(=O)N[C@@H](CO)C(=O)N[C@@H](Cc1ccccc1)C(=O)N[C@@H](CCCNC(=N)N)C(=O)O [Peptide P19] (Palmitoyl-MKLSFR-OH; C-terminus assumed)	>100	>100
CC(C)C[C@H](N)C(=O)N[C@@H](CO)C(=O)N[C@@H](Cc1ccccc1)C(=O)N[C@@H](CCCNC(=N)N)C(=O)O [Peptide P8] (H-LSFR-OH)	>100	>100
CSCC[C@H](NC(=O)[C@H](CO)NC(=O)[C@H](CO)NC(C)=O)C(=O)N[C@@H](CCCCN)C(=O)N[C@@H](CC(C)C)C(=O)N[C@@H](CO)C(=O)N[C@@H](Cc1ccccc1)C(=O)N[C@@H](CCCNC(=N)N)C(=O)N[C@@H](C)C(=O)N[C@@H](CCCNC(=N)N)C(=O)NCC(=O)N[C@@H](Cc1ccc(O)cc1)C(=O)NCC(=O)N[C@@H](Cc1ccccc1)C(=O)N[C@@H](CCCNC(=N)N)C(=O)O [Peptide P12] (Ac-SSMKLSFRARGYGFR-OH; C-terminus assumed)	>100	>100
CC(=O)N[C@@H](CC(C)C)C(=O)N[C@@H](CO)C(=O)N[C@@H](Cc1ccccc1)C(=O)N[C@@H](CCCNC(=N)N)C(=O)O [Peptide P10] (Ac-LSFR-OH)	>100	>100
CCCCCCCCCCCCCCCC(=O)N[C@@H](CO)C(=O)N[C@@H](CO)C(=O)N[C@@H](CCSC)C(=O)N[C@@H](CCCCN)C(=O)N[C@@H](CC(C)C)C(=O)N[C@@H](CO)C(=O)N[C@@H](Cc1ccccc1)C(=O)N[C@@H](CCCNC(=N)N)C(=O)O [Peptide P16] (Palmitoyl-SSMKLSFR-OH; C-terminus assumed)	>100	>100
CC(C)C[C@@H](N)C(=O)N[C@H](CO)C(=O)N[C@H](Cc1ccccc1)C(=O)N[C@H](CCCNC(=N)N)C(=O)O [Peptide P9] (H-[dL][dS][dF][dR]-OH; N-terminus and C-terminus assumed)	>100	>100
CCCCCCCCCCCCCCCC(=O)N[C@@H](CCCNC(=N)N)C(=O)N[C@@H](CO)C(=O)N[C@@H](CCSC)C(=O)N[C@@H](CCCNC(=N)N)C(=O)N[C@@H](CC(C)C)C(=O)N[C@@H](CO)C(=O)N[C@@H](Cc1ccccc1)C(=O)N[C@@H](CCCNC(=N)N)C(=O)O [Peptide P4] (Palmitoyl-RSMRLSFR-OH; C-terminus assumed)	>100	>100
CCCCCCCCCCCCCCCC(=O)N[C@@H](CC(C)C)C(=O)N[C@@H](CO)C(=O)N[C@@H](Cc1ccccc1)C(=O)N[C@@H](CCCNC(=N)N)C(=O)O [Peptide P11] (Palmitoyl-LSFR-OH; C-terminus assumed)	>100	>100
CSCC[C@H](NC(=O)[C@H](CO)NC(=O)[C@H](CO)NC(C)=O)C(=O)N[C@@H](CCCCN)C(=O)N[C@@H](CC(C)C)C(=O)N[C@@H](CO)C(=O)N[C@@H](Cc1ccccc1)C(=O)N[C@@H](CCCNC(=N)N)C(=O)O [Peptide P15] (Ac-SSMKLSFR-OH)	>100	>100

More lines, now with the values ahead:

MIC C. albicans “S” [1] [µg/mL]	MIC C. albicans “R” (Candida albicans “R”) [µg/mL]	Compound
>100	>100	CC(=O)N[C@@H](CCCCN)C(=O)N[C@@H](CC(C)C)C(=O)N[C@@H](CO)C(=O)N[C@@H](Cc1ccccc1)C(=O)N[C@@H](CCCNC(=N)N)C(=O)N[C@@H](C)C(=O)O [Peptide P17] (Ac-KLSFRA-OH)
>100	>100	CC(C)C[C@@H](NC(=O)[C@H](N)CCCNC(=N)N)C(=O)N[C@H](CO)C(=O)N[C@H](Cc1ccccc1)C(=O)N[C@H](CCCNC(=N)N)C(=O)N[C@H](C)C(=O)N[C@H](Cc1c[nH]c2ccccc12)C(=O)O [Peptide P6] (H-[dR][dL][dS][dF][dR][dA][dW]-OH; N-terminus and C-terminus assumed)
>100	>100	CSCC[C@H](NC(=O)[C@H](CO)NC(=O)[C@@H](N)CO)C(=O)N[C@@H](CCCCN)C(=O)N[C@@H](CC(C)C)C(=O)N[C@@H](CO)C(=O)N[C@@H](Cc1ccccc1)C(=O)N[C@@H](CCCNC(=N)N)C(=O)O [Peptide P14] (H-SSMKLSFR-OH)
50 (≈ 47.5 µM)	100 (≈ 95 µM)	CSCC[C@H](NC(=O)[C@H](CO)NC(=O)[C@@H](N)CCCNC(=N)N)C(=O)N[C@@H](CCCNC(=N)N)C(=O)N[C@@H](CC(C)C)C(=O)N[C@@H](CO)C(=O)N[C@@H](Cc1ccccc1)C(=O)N[C@@H](CCCNC(=N)N)C(=O)O [Peptide P2] (H-RSMRLSFR-OH)
>100	>100	CC(C)C[C@H](NC(=O)[C@@H](N)CCCNC(=N)N)C(=O)N[C@@H](CO)C(=O)N[C@@H](Cc1ccccc1)C(=O)N[C@@H](CCCNC(=N)N)C(=O)N[C@@H](C)C(=O)N[C@@H](Cc1c[nH]c2ccccc12)C(=O)O [Peptide P5] (H-RLSFRAW-OH)
>100	>100	CSCC[C@H](NC(=O)[C@H](CO)NC(=O)[C@H](CCCNC(=N)N)NC(C)=O)C(=O)N[C@@H](CCCNC(=N)N)C(=O)N[C@@H](CC(C)C)C(=O)N[C@@H](CO)C(=O)N[C@@H](Cc1ccccc1)C(=O)N[C@@H](CCCNC(=N)N)C(=O)O [Peptide P3] (Ac-RSMRLSFR-OH)
>100	>100	CC(=O)N[C@@H](CC(C)C)C(=O)N[C@@H](CO)C(=O)N[C@@H](Cc1ccccc1)C(=O)N[C@@H](CCCNC(=N)N)C(=O)N[C@@H](C)C(=O)N[C@@H](CCCNC(=N)N)C(=O)O [Peptide P7] (Ac-LSFRAR-OH)
>100	>100	CSCC[C@H](N)C(=O)N[C@@H](CCCCN)C(=O)N[C@@H](CC(C)C)C(=O)N[C@@H](CO)C(=O)N[C@@H](Cc1ccccc1)C(=O)N[C@@H](CCCNC(=N)N)C(=O)O [Peptide P18] (H-MKLSFR-OH)
